{
  "source": "patent US9024017B2",
  "about": "“Octahydro-cyclopentapyrrolyl antagonists of CCR2” (Janssen Pharmaceutica NV, priority 2012, dated 2015)",
  "data": [
    {"target": "T1, CCR2 (Homo sapiens, UniProt P41597)", "T1 construct": "host or cells: THP-1 (human monocytic cell line)", "T1 sequence (P41597 whole entry)": "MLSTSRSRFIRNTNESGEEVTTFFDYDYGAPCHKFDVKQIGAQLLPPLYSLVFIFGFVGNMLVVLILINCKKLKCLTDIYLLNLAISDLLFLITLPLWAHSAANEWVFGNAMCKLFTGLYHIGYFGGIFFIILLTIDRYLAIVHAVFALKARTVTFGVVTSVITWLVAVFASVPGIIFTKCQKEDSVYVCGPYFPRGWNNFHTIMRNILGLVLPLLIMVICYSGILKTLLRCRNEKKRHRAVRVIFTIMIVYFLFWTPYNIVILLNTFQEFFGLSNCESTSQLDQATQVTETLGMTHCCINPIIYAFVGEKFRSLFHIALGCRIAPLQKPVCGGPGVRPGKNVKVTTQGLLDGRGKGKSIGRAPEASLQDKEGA", "assay": "MCP-1 Receptor Binding Assay in THP-1 Cells", "settings": "read-out: MCP1B_v3 IC50", "summary_of_the_method": "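Human monocytic THP-1 cells incubated 2 h at 30 °C with 0.5 nM 125I-MCP-1 and varying concentrations of test compound or unlabelled MCP-1. Cells filter-harvested and counted by scintillation; blank subtracted, compared with vehicle; nonspecific binding with 1 μM cold MCP-1.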", "units": {"IC50": "nM"}, "values": [
      {"molecule": "COC1COCCC1N[C@@H]1C[C@H]2CN(C(=O)N(C)C)C[C@@]2(C(=O)N2CCc3ncc(C(F)(F)F)cc3C2)C1", "note": "(relative stereo) [Example 21, (3aR,5R,6aR)-5-(((3S*,4S*)-3-Methoxytetrahydro-2H-pyran-4-yl)amino)-N,N-dimethyl-3a-(3-(trifluoromethyl)-5,6,7,8-tetrahydro-1,6-naphthyridine-6-carbonyl)hexahydrocyclopenta[c]pyrrole-2(1H)-carboxamide]", "IC50": 220},
      {"molecule": "COCCOC(=O)N1C[C@@H]2C[C@@H](NC3CCOCC3OC)C[C@]2(C(=O)N2CCc3ncc(C(F)(F)F)cc3C2)C1", "note": "(relative stereo) [Example 48, (3aR,5R,6aR)-2-Methoxyethyl 5-(((3S*,4S*)-3-methoxytetrahydro-2H-pyran-4-yl)amino)-3a-(3-(trifluoromethyl)-5,6,7,8-tetrahydro-1,6-naphthyridine-6-carbonyl)hexahydrocyclopenta[c]pyrrole-2(1H)-carboxylate]", "IC50": 80},
      {"molecule": "COC1COCCC1N[C@@H]1C[C@H]2CN(/C(N)=N/O)C[C@@]2(C(=O)N2CCc3ncc(C(F)(F)F)cc3C2)C1", "note": "(relative stereo) [Example 116, (3aR,5R,6aR,E)-N′-Hydroxy-5-(((3S*,4S*)-3-methoxytetrahydro-2H-pyran-4-yl)amino)-3a-(3-(trifluoromethyl)-5,6,7,8-tetrahydro-1,6-naphthyridine-6-carbonyl)hexahydro-cyclopenta[c]pyrrole-2(1H)-carboximidamide]", "IC50": 1800},
      {"molecule": "COC1COCCC1N[C@@H]1C[C@H]2CN(C(=O)OCC(C)(C)C)C[C@@]2(C(=O)N2CCc3ncc(C(F)(F)F)cc3C2)C1", "note": "(relative stereo) [Example 36, (3aR,5R,6aR)-Neopentyl 5-(((3S*,4S*)-3-methoxytetrahydro-2H-pyran-4-yl)amino)-3a-(3-(trifluoromethyl)-5,6,7,8-tetrahydro-1,6-naphthyridine-6-carbonyl)hexahydro-cyclopenta[c]pyrrole-2(1H)-carboxylate]", "IC50": 560},
      {"molecule": "COCCN[C@@H]1C[C@H]2CN(C(N)=O)C[C@@]2(C(=O)N2CCc3ncc(C(F)(F)F)cc3C2)C1", "note": "[Example 7]", "IC50": 5060},
      {"molecule": "COC1COCCC1N[C@@H]1C[C@H]2CN(C(=O)CCCN(C)C)C[C@@]2(C(=O)N2CCc3ncc(C(F)(F)F)cc3C2)C1", "note": "(relative stereo) [Example 78, 4-(Dimethylamino)-1-((3aR,5R,6aR)-5-(((3S*,4S*)-3-methoxytetrahydro-2H-pyran-4-yl)amino)-3a-(3-(trifluoromethyl)-5,6,7,8-tetrahydro-1,6-naphthyridine-6-carbonyl)-hexahydrocyclopenta[c]pyrrol-2(1H)-yl)butan-1-one]", "IC50": 230},
      {"molecule": "COC1COCCC1N[C@@H]1C[C@H]2CN(S(C)(=O)=O)C[C@@]2(C(=O)N2CCc3ncc(C(F)(F)F)cc3C2)C1", "note": "(relative stereo) [Example 91, ((3aR,5R,6aR)-5-(((3S*,4S*)-3-Methoxytetrahydro-2H-pyran-4-yl)amino)-2-(methylsulfonyl)octahydrocyclopenta[c]pyrrol-3a-yl)(3-(trifluoromethyl)-7,8-dihydro-1,6-naphthyridin-6(5H)-yl)methanone]", "IC50": 610},
      {"molecule": "COC1COCCC1N[C@@H]1C[C@H]2CN(C(=O)OCC3CCOCC3)C[C@@]2(C(=O)N2CCc3ncc(C(F)(F)F)cc3C2)C1", "note": "(relative stereo) [Example 47, (3aR,5R,6aR)-(Tetrahydro-2H-pyran-4-yl)methyl 5-(((3S*,4S*)-3-methoxytetrahydro-2H-pyran-4-yl)amino)-3a-(3-(trifluoromethyl)-5,6,7,8-tetrahydro-1,6-naphthyridine-6-carbonyl)hexahydrocyclopenta[c]pyrrole-2(1H)-carboxylate]", "IC50": 30},
      {"molecule": "COC1COCCC1N[C@@H]1C[C@H]2CN(C=O)C[C@@]2(C(=O)N2CCc3ncc(C(F)(F)F)cc3C2)C1", "note": "(relative stereo) [Example 114, (3aR,5R,6aR)-5-(((3S*,4S*)-3-Methoxytetrahydro-2H-pyran-4-yl)amino)-3a-(3-(trifluoromethyl)-5,6,7,8-tetrahydro-1,6-naphthyridine-6-carbonyl)hexahydrocyclopenta-[c]pyrrole-2(1H)-carbaldehyde]", "IC50": 370},
      {"molecule": "COC1COCCC1N[C@@H]1C[C@H]2CN(/C(N)=N\\C#N)C[C@@]2(C(=O)N2CCc3ncc(C(F)(F)F)cc3C2)C1", "note": "(relative stereo) [Example 115, (3aR,5R,6aR,E)-N′-Cyano-5-(((3S*,4S*)-3-methoxytetrahydro-2H-pyran-4-yl)amino)-3a-(3-(trifluoromethyl)-5,6,7,8-tetrahydro-1,6-naphthyridine-6-carbonyl)hexahydrocyclopenta-[c]pyrrole-2(1H)-carboximidamide]", "IC50": 40},
      {"molecule": "COC1COCCC1N[C@@H]1C[C@H]2CN(C3COC3)C[C@@]2(C(=O)N2CCc3ncc(C(F)(F)F)cc3C2)C1", "note": "(relative stereo) [Example 99, ((3aR,5R,6aR)-5-(((3S*,4S*)-3-methoxytetrahydro-2H-pyran-4-yl)amino)-2-(oxetan-3-yl)octahydrocyclopenta[c]pyrrol-3a-yl)(3-(trifluoromethyl)-7,8-dihydro-1,6-naphthyridin-6(5H)-yl)methanone]", "IC50": 130},
      {"molecule": "COC1COCCC1N[C@@H]1C[C@H]2CN(C(=O)OCCC(C)(C)O)C[C@@]2(C(=O)N2CCc3ncc(C(F)(F)F)cc3C2)C1", "note": "(relative stereo) [Example 62, (3aR,5R,6aR)-3-Hydroxy-3-methylbutyl 5-(((3S*,4S*)-3-methoxytetrahydro-2H-pyran-4-yl)amino)-3a-(3-(trifluoromethyl)-5,6,7,8-tetrahydro-1,6-naphthyridine-6-carbonyl)-hexahydrocyclopenta[c]pyrrole-2(1H)-carboxylate]", "IC50": 60},
      {"molecule": "COC1COCCC1N[C@@H]1C[C@H]2CN(C(C)=O)C[C@@]2(C(=O)N2CCc3ncc(C(F)(F)F)cc3C2)C1", "note": "(relative stereo) [Example 66, 1-((3aR,5R,6aR)-5-(((3S*,4S*)-3-Methoxytetrahydro-2H-pyran-4-yl)amino)-3a-(3-(trifluoromethyl)-5,6,7,8-tetrahydro-1,6-naphthyridine-6-carbonyl)hexahydrocyclopenta-[c]pyrrol-2(1H)-yl)ethanone]", "IC50": 400},
      {"molecule": "COC1COCCC1N[C@@H]1C[C@H]2CN(C(=O)CCN3CCCCC3)C[C@@]2(C(=O)N2CCc3ncc(C(F)(F)F)cc3C2)C1", "note": "(relative stereo) [Example 79, 1-((3aR,5R,6aR)-5-(((3S*,4S*)-3-Methoxytetrahydro-2H-pyran-4-yl)amino)-3a-(3-(trifluoromethyl)-5,6,7,8-tetrahydro-1,6-naphthyridine-6-carbonyl)hexahydrocyclopenta-[c]pyrrol-2(1H)-yl)-3-(piperidin-1-yl)propan-1-one]", "IC50": 500},
      {"molecule": "COC1COCCC1N[C@@H]1C[C@H]2CN(S(N)(=O)=O)C[C@@]2(C(=O)N2CCc3ncc(C(F)(F)F)cc3C2)C1", "note": "(relative stereo) [Example 32, (3aR,5R,6aR)-5-(((3S*,4S*)-3-Methoxytetrahydro-2H-pyran-4-yl)amino)-3a-(3-(trifluoromethyl)-5,6,7,8-tetrahydro-1,6-naphthyridine-6-carbonyl)hexahydrocyclopenta-[c]pyrrole-2(1H)-sulfonamide]", "IC50": 130},
      {"molecule": "COC1COCCC1N[C@@H]1C[C@H]2CN(C#N)C[C@@]2(C(=O)N2CCc3ncc(C(F)(F)F)cc3C2)C1", "note": "(relative stereo) [Example 117, (3aR,5R,6aR)-5-(((3S*,4S*)-3-Methoxytetrahydro-2H-pyran-4-yl)amino)-3a-(3-(trifluoromethyl)-5,6,7,8-tetrahydro-1,6-naphthyridine-6-carbonyl)hexahydrocyclopenta[c]pyrrole-2(1H)-carbonitrile]", "IC50": 5400},
      {"molecule": "COC1COCCC1N[C@@H]1C[C@H]2CN(C(=O)N3CCOCC3)C[C@@]2(C(=O)N2CCc3ncc(C(F)(F)F)cc3C2)C1", "note": "(relative stereo) [Example 22, ((3aR,5R,6aR)-5-(((3S*,4S*)-3-Methoxytetrahydro-2H-pyran-4-yl)amino)-2-(morpholine-4-carbonyl)octahydrocyclopenta[c]pyrrol-3a-yl)(3-(trifluoromethyl)-7,8-dihydro-1,6-naphthyridin-6(5H)-yl)methanone]", "IC50": 420},
      {"molecule": "COC1COCCC1N[C@@H]1C[C@H]2CN(C3=NCCO3)C[C@@]2(C(=O)N2CCc3ncc(C(F)(F)F)cc3C2)C1", "note": "(relative stereo) [Example 113, ((3aR,5R,6aR)-2-(4,5-Dihydrooxazol-2-yl)-5-(((3S*,4S*)-3-methoxytetrahydro-2H-pyran-4-yl)amino)octahydrocyclopenta[c]pyrrol-3a-yl)(3-(trifluoromethyl)-7,8-dihydro-1,6-naphthyridin-6(5H)-yl)methanone]", "IC50": 100},
      {"molecule": "COC1COCCC1N[C@@H]1C[C@H]2CN(C(=O)OCCC3CCOCC3)C[C@@]2(C(=O)N2CCc3ncc(C(F)(F)F)cc3C2)C1", "note": "(relative stereo) [Example 42, (3aR,5R,6aR)-2-(Tetrahydro-2H-pyran-4-yl)ethyl 5-(((3S*,4S*)-3-methoxytetrahydro-2H-pyran-4-yl)amino)-3a-(3-(trifluoromethyl)-5,6,7,8-tetrahydro-1,6-naphthyridine-6-carbonyl)hexahydrocyclopenta[c]pyrrole-2(1H)-carboxylate]", "IC50": 30},
      {"molecule": "COC1COCCC1N[C@@H]1C[C@H]2CN(C(=O)c3ncco3)C[C@@]2(C(=O)N2CCc3ncc(C(F)(F)F)cc3C2)C1", "note": "(relative stereo) [Example 70, ((3aR,5R,6aR)-5-(((3S*,4S*)-3-Methoxytetrahydro-2H-pyran-4-yl)amino)-2-(oxazole-2-carbonyl)octahydrocyclopenta[c]pyrrol-3a-yl)(3-(trifluoromethyl)-7,8-dihydro-1,6-naphthyridin-6(5H)-yl)methanone]", "IC50": 80},
      {"molecule": "COC1COCCC1N[C@@H]1C[C@H]2CN(C(=O)OCCN(C)C)C[C@@]2(C(=O)N2CCc3ncc(C(F)(F)F)cc3C2)C1", "note": "(relative stereo) [Example 54, (3aR,5R,6aR)-2-(Dimethylamino)ethyl 5-(((3S*,4S*)-3-methoxytetrahydro-2H-pyran-4-yl)amino)-3a-(3-(trifluoromethyl)-5,6,7,8-tetrahydro-1,6-naphthyridine-6-carbonyl)-hexahydrocyclopenta[c]pyrrole-2(1H)-carboxylate]", "IC50": 150}
    ]}
  ]
}
